For twelve molecules, pest or weed control, chromatographic logP and Efficacy in % results are on record in US7119049B2, “Oxathiinecarboxamides” (Bayer Cropscience AG, priority 2002, dated 2006).

SMILES strings stand for the structures. Read-outs that look alike come from different tables or passages of the source.

One data set relates to Alternaria solani. Nature of the data set: Alternaria Test (Tomato)/protective. The format is in vivo. To be noted: 48 h, read-out: Efficacy in %. The procedure: (§1) To produce a suitable preparation of active compound, 1 part by weight of active compound is mixed with the stated amounts of solvent and emulsifier, and the concentrate is diluted with water to the desired concentration.
To test for protective activity, young tomato plants are sprayed with the preparation of active compound at the stated application rate. 1 day after the treatment, the plants are inoculated with an aqueous spore suspension of Alternaria solani. The plants are then placed in an incubation cabin at about 20° C. and 100% relative atmospheric humidity.
Evaluation is carried out 2 days after the inoculation. 0% means an efficacy which corresponds to that of the control, whereas an efficacy of 100% means that no infection is observed.

A short description of data set [1]: logP determination by HPLC (reversed-phase C 18), acidic range. The data set is classed as physicochemical. To be noted: pH 2.3, HPLC reversed-phase C 18, 43° C., 0.1% aqueous phosphoric acid/acetonitrile. The procedure:
The logP values given in the Preparation Examples were determined in accordance with EEC Directive 79/831 Annex V.A8 by HPLC (High Performance Liquid Chromatography) using a reversed-phase column (C 18). Temperature: 43° C.
Mobile phases for the determination in the acidic range: 0.1% aqueous phosphoric acid, acetonitrile; linear gradients from 10% acetonitrile to 90% acetonitrile.
Calibration was carried out using unbranched alkan-2-ones (having 3 to 16 carbon atoms) with known logP values (determination of the logP values by the retention times using linear interpolation between two successive alkanones).

The test system of the next data set is Podosphaera leucotricha. Nature of the data set: Podosphaera Test (Apple)/protective. To be noted: 240 h, read-out: Efficacy in %. The format is in vivo. The procedure:
Podosphaera Test (Apple)/Protective
• Solvents: 24.5 Parts by weight of acetone 24.5 Parts by weight of dimethylacetamide • Emulsifier: 1.0 Part by weight of alkylaryl polyglycol ether
(§2) To produce a suitable preparation of active compound, 1 part by weight of active compound is mixed with the stated amount of solvent and emulsifier, and the concentrate is diluted with water to the desired concentration.
To test for protective activity, young plants are sprayed with the preparation of active compound at the stated application rate. After the spray coating has dried on, the plants are inoculated with an aqueous spore suspension of the apple mildew pathogen Podosphaera leucotricha. The plants are then placed in a greenhouse at about 23° C. and a relative atmospheric humidity of about 70%.
(§3) Evaluation is carried out 10 days after the inoculation. 0% means an efficacy which corresponds to that of the control, whereas an efficacy of 100% means that no infection is observed.

The test system of the next data set is Venturia inaequalis. Nature of the data set: Venturia Test (Apple)/protective. The data set is classed as in vivo. To be noted: 240 h, read-out: Efficacy in %. The procedure:
as §1
To test for protective activity, young plants are sprayed with the preparation of active compound at the stated application rate. After the spray coating has dried on, the plants are inoculated with an aqueous conidia suspension of the apple scab pathogen Venturia inaequalis and then remain in an incubation cabin at about 20° C. and 100% relative atmospheric humidity for 1 day.
The plants are then placed in a greenhouse at about 21° C. and a relative atmospheric humidity of about 90%.
as §3

The next data set deals with Puccinia recondita. Nature of the data set: Puccinia Test (Wheat)/protective. The format is in vivo. To be noted: protective, 500 g/ha, evaluation 10 days after inoculation. The method, then: as §1
To test for protective activity, young plants are sprayed with the preparation of active compound at the stated application rate. After the spray coating has dried on, the plants are sprayed with a conidia suspension of Puccinia recondita. The plants remain in an incubation cabin at 20° C. and 100% relative atmospheric humidity for 48 hours.
The plants are then placed in a greenhouse at a temperature of about 20° C. and a relative atmospheric humidity of about 80% to promote the development of rust pustules.
as §3

Another data set concerns Pyrenophora teres. Nature of the data set: Pyrenophora teres Test (Barley)/protective. The format is in vivo. To be noted: protective, 500 g/ha, evaluation 7 days after inoculation. The method, then:
as §2
To test for protective activity, young plants are sprayed with the preparation of active compound at the stated application rate. After the spray coating has dried on, the plants are sprayed with a conidia suspension of Pyrenophora teres. The plants remain in an incubation cabin at 20° C. and 100% relative atmospheric humidity for 48 hours.
The plants are then placed in a greenhouse at temperature of about 20° C. and a relative atmospheric humidity of about 80%.
Evaluation is carried out 7 days after the inoculation. 0% means an efficacy which corresponds to that of the control, whereas an efficacy of 100% means that no infection is observed.

In the case of `CC1=C(C(=O)Nc2ccccc2-c2ccc(Cl)cc2F)SCCO1` [Example 1, N-(4′-chloro-2′-fluoro-1,1′-biphenyl-2-yl)-2-methyl-5,6-dihydro-1,4-oxathiine-3-carboxamide], the pest or weed control at 100 g/ha is 94% in the data set on Alternaria solani (tomato, protective, 100 g/ha, evaluation 2 days after inoculation); 99% in the data set with Podosphaera leucotricha (apple, protective, application rate 100 g/ha, evaluation 10 days after inoculation); 100% in the data set with Venturia inaequalis (apple, protective, 100 g/ha, evaluation 10 days after inoculation). The molecule also showed a chromatographic logP in data set [1] (reversed-phase C18 HPLC column) of 3.61.
In the case of `CC1=C(C(=O)Nc2ccccc2-c2ccc(Cl)c(Cl)c2)SCCO1` [Example 6], the pest or weed control at 100 g/ha with Alternaria solani, in the data set on Podosphaera leucotricha and in the data set on Venturia inaequalis was 100% in each case. The same molecule had a chromatographic logP in data set [1] of 4.02. Also, the Efficacy in % in the data set with Puccinia recondita worked out at 100%.
As to `CC1=C(C(=O)Nc2ccccc2-c2ccc(F)c(F)c2)SCCO1` [Example 12], the pest or weed control at 100 g/ha with Alternaria solani was 95%; with Venturia inaequalis, 100%. In addition, in data set [1], the chromatographic logP turned out to be 3.38.
For the molecule `CC1=C(C(=O)Nc2ccccc2-c2ccc(Cl)c(F)c2)SCCO1` [Example 9], the pest or weed control at 100 g/ha with Alternaria solani, with Podosphaera leucotricha and with Venturia inaequalis was 100% throughout. Also, the chromatographic logP in data set [1] was 3.67. Further, the Efficacy in % in the data set on Puccinia recondita came to 100%; in the data set on Pyrenophora teres it was 95%.
As to `CC1=C(C(=O)Nc2ccccc2-c2ccc(Cl)c(C(F)(F)F)c2)SCCO1` [Example 13], the pest or weed control at 100 g/ha is 94% with Alternaria solani and 99% in the data set with Venturia inaequalis. Moreover, the chromatographic logP in data set [1] amounted to 4.03.
Regarding `CC1=C(C(=O)Nc2ccccc2-c2ccc(Cl)cc2C)SCCO1` [Example 8], the pest or weed control at 100 g/ha was 94% with Alternaria solani, 96% in the data set on Podosphaera leucotricha and 99% in the data set on Venturia inaequalis. For the same molecule, in data set [1], the chromatographic logP is 4.26.
For the molecule `CC1=C(C(=O)Nc2ccccc2-c2ccc(F)c(Cl)c2)SCCO1` [Example 10], the pest or weed control at 100 g/ha with Alternaria solani stood at 94%; with Podosphaera leucotricha it was 93%; with Venturia inaequalis it was 100%. The same molecule yielded a chromatographic logP in data set [1] of 3.7.
Molecule `CC1=C(C(=O)Nc2ccccc2-c2ccc(C#N)cc2)SCCO1` [Example 19] registered a chromatographic logP in data set [1] of 2.74. This molecule gave an Efficacy in % with Pyrenophora teres of 93%.
As to `CC1=C(C(=O)Nc2c(F)cccc2-c2ccc(Cl)c(Cl)c2)SCCO1` [Example 16], the pest or weed control at 100 g/ha was determined as 95% with Alternaria solani, 90% with Podosphaera leucotricha and 100% with Venturia inaequalis. Besides, the chromatographic logP in data set [1] came to 3.53.
Turning to `CC1=C(C(=O)Nc2ccccc2-c2ccc(Cl)cc2)SCCO1` [Example 17], the pest or weed control at 100 g/ha with Alternaria solani and in the data set with Venturia inaequalis was 93% in each case. For the same molecule, in data set [1], the chromatographic logP amounted to 3.69. The same molecule had an Efficacy in % in the data set on Pyrenophora teres of 100%.
Take `CC1=C(C(=O)Nc2ccccc2-c2ccc(Cl)c(C)c2)SCCO1` [Example 15]: the pest or weed control at 100 g/ha in the data set with Alternaria solani stood at 96%; with Podosphaera leucotricha, 98%; with Venturia inaequalis, 100%. In addition, in data set [1], the chromatographic logP is 4.17.
Turning to `CC1=C(C(=O)Nc2ccccc2-c2ccc(Cl)cc2Cl)SCCO1` [Example 7], the pest or weed control at 100 g/ha with Alternaria solani was 98%; with Podosphaera leucotricha it was 100%; with Venturia inaequalis it was 100%.
